Test results: ChEMBL document CHEMBL3580542, “Inhibitors of the PD-1/PD-L1 Pathway Can Mobilize the Immune System: An Innovative Potential Therapy for Cancer and Chronic Infections” (ACS Med Chem Lett, 2015)

Biological target: Programmed cell death 1 ligand 1 (Homo sapiens, UniProt Q9NZQ7)
Assay: Binding affinity to His-tagged PD-L1 (unknown origin) assessed as inhibition of interaction with PD1 preincubated for 15 mins followed by PD1 addition measured after 15 mins by HTRF assay

Sequence of Programmed cell death 1 ligand 1 (Q9NZQ7 whole entry): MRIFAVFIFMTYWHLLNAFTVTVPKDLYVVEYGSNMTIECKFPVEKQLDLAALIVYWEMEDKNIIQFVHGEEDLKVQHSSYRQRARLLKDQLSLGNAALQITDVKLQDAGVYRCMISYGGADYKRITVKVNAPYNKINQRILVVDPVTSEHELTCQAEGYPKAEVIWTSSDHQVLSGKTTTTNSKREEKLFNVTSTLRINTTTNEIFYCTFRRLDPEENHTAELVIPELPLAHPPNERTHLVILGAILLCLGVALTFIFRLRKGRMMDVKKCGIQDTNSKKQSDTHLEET

| SMILES | IC50 [µM] |
| --- | --- |
| COc1cc(OCc2cccc(-c3ccccc3)c2C#N)cc(OC)c1CN1CCCC[C@H]1C(=O)O | 0.006 |
| Cc1cc(CN2CCC(C(=O)NCCO)CC2)ccc1OCc1cccc(-c2ccccc2)c1C | 0.11 |
